In PMC5286520 (Scientific Reports, 2017):

Tests used:
inotocin R (L. niger) = test: Radioligand displacement of [3H] inotocin, inotocin receptor from L. niger; parameters: species or system Lasius niger; conditions: saturation binding experiments
Method: (§1) Chinese Hamster Ovary cells (CHO) were cultured in Ham’s F12 media supplemented with 10% fetal bovine serum (FBS), 1% PenStrep (all from Sigma-Aldrich, Munich, Germany) and grown in a humidified atmosphere of 37 °C, 5% CO2 and passaged on average twice per week. CHO cells were used for expression of inotocin receptor (L. niger, T. castaneum). Cell transfections were carried out with 10 μg of plasmid using Lipofectamine LTX (Life Technologies, Invitrogen, Carlsbad, USA) for invertebrate receptors. For the expression of human OTR, V1aR, V1bR and V2R, HEK293 cells were transfected using jetPRIME (Polyplus Transfections, Illkirch-Graffenstaden, France)[35]. Cells were maintained in DMEM (GE Healthcare Hy Clone™, Logan, USA) supplemented with 10% FBS and 1% PenStrep.
(§2) Unbound ligands were washed off (Skatron Cell Harvester). […] Bindings of [^3H] AVP and [^3H] […] Bindings of [^3H] inotocin to membranes (10 μg) expressing INTR from L. niger, or [^3H] inotocin to membranes (10 μg) expressing INTR from T. castaneum, respectively, were assayed for displacement with an excess of inotocin (10^−11 to 10^−5 M) (n ≥ 3, except where otherwise stated). […] Specific binding was calculated by subtracting the non-specific binding from the total binding. […] Inhibition constants (Ki) were calculated from IC50 using the method by Cheng and Prusoff[65].

[1] = target: inotocin R (T. castaneum); test: Radioligand displacement of [3H] inotocin, inotocin receptor from T. castaneum; parameters: species or system Tribolium castaneum; conditions: saturation binding experiments
Method: as §1, §2

[2] = type: in vitro ADME, human; conditions: for half-life: human serum, 37 °C, 100 μM peptide, read-out: half-life t½ (converted); for degradation in human serum: within 24 h
Method: Serum stability was tested as described previously. Briefly, serum was obtained prepared from human blood (self-donor), allowed to coagulate for 2 h at 23 °C and centrifuged at 12,000 × g for 10 min. Peptides (100 μM) were incubated in serum for 2, 4, 6, 8, 10 and 24 h at 37 °C. To evaluate peptide stability, aliquots ([…]) were analysed via RP-HPLC (UltiMate 3000, Thermo Scientific Dionex, Vienna, Austria) on a C18 column (Phenomenex Kinetex, Aschaffenburg, Germany) with a 3% gradient using 0.1% (v/v) TFA and 90/10/0.1% (v/v/v) acetonitrile/H2O/TFA as eluents. Half-life (t1/2) of peptides was calculated using non-linear regression analysis using Graph Pad Prism.
Supplementary Fig. 5. Human serum stability of the inotocin D-analogue. [D-Arg 8 ]-inotocin […]
serum and their stability monitored via HPLC over a time course of 2, 4, 6, 8, 10 and 24 h. Melittin, a haemolytic peptide from the bee venom was used as a positive control f or peptide degradation.
Area under the curves of samples was determined and correlated to the negative control analyte, which was dissolved in 0.1% TFA; thus they were not subject to degradation and were assumed therefore as 100%. Peptide stability was expressed in percentage of peptide remaining.
(1 picture or pasted object on this page, not shown here)

V1aR = target: V1aR; parameters: method as in earlier work; conditions: previous studies, ref [32][43], cited from earlier work

| Compound | half-life [2] [min] | degradation in human serum [2] | other results |
| --- | --- | --- | --- |
| [^3H] inotocin: tritiated inotocin radioligand, C[4,5-3H]LITNCPGR-NH2 as printed (tritium label; N-terminal Cys; C-terminal amide) |  |  | Kd (inotocin R (L. niger)): 0.9 nM; Kd [1]: 2.7 nM |
| CC[C@H](C)[C@H](NC(=O)CN)C(=O)NCC(=O)N[C@@H](C)C(=O)N[C@H](C(=O)N[C@@H](CC(C)C)C(=O)N[C@@H](CCCCN)C(=O)N[C@H](C(=O)N[C@@H](CC(C)C)C(=O)N[C@H](C(=O)N[C@H](C(=O)NCC(=O)N[C@@H](CC(C)C)C(=O)N1CCC[C@H]1C(=O)N[C@@H](C)C(=O)N[C@@H](CC(C)C)C(=O)N[C@H](C(=O)N[C@@H](CO)C(=O)N[C@@H](Cc1c[nH]c2ccccc12)C(=O)N[C@H](C(=O)N[C@@H](CCCCN)C(=O)N[C@@H](CCCNC(=N)N)C(=O)N[C@@H](CCCCN)C(=O)N[C@@H](CCCNC(=N)N)C(=O)N[C@@H](CCC(N)=O)C(=O)N[C@@H](CCC(N)=O)C(N)=O)[C@@H](C)CC)[C@@H](C)CC)[C@@H](C)O)[C@@H](C)O)C(C)C)C(C)C [melittin] | 42 | fully degraded |  |
| NC(=O)CC[C@@H]1NC(=O)[C@H](Cc2ccccc2)NC(=O)[C@H](Cc2ccc(O)cc2)NC(=O)[C@@H](N)CSSC[C@@H](C(=O)N2CCC[C@H]2C(=O)N[C@@H](CCCN=C(N)N)C(=O)NCC(N)=O)NC(=O)[C@H](CC(N)=O)NC1=O [vasopressin, arginine-vasopressin] | 60 | fully degraded |  |
| [D-Arg8]-vasopressin |  |  | Ki (V1aR; read-out: binding affinity): 781 nM; difference in affinity of peptide pair vasopressin/[D-Arg8]-vasopressin (V1aR): ~ 200 fold |
